Assay results taken from patent US7459458B2, “Polymorph of N-methyl-N-(3-{3-[2-thienylcarbonyl]-pyrazol-[1,5-α]-pyrimidin-7-yl}phenyl)acetamide and compositions and methods related thereto” (Neurocrine Biosciences, Inc., priority 2002, dated 2008).

Assay: Interconversion experiments (slurry) to evaluate thermodynamic stability of Compound 1 at room temperature
Format: physicochemical
Conditions: agitated 16 days
Description: Interconversion experiments were carried out to evaluate the thermodynamic stability of Compound 1 at room temperature. Three slurries were prepared by making saturated isopropanol solutions of Compound 1, filtering the solutions through 0.2 μm filters, and then adding an amount (in the form of crystals) of a polymorphic form of Compound 1. To the first slurry, equal amounts of both polymorph Form II and polymorph Form III (i.e., approximately 25 mg each) were added; to the second slurry, equal amounts of polymorph From I and polymorph Form III (i.e., approximately 25 mg each) were added; and to the third slurry, approximately 25 mg of polymorph Form III was added. The slurries were then agitated for 16 days. The resulting solids were collected by vacuum filtration, air-dried, and analyzed using XRPD.

Structure (SMILES): CC(=O)N(C)c1cccc(-c2ccnc3c(C(=O)c4cccs4)cnn23)c1 [polymorph Form III, N-methyl-N-(3-{3-[2-thienylcarbonyl]-pyrazol-[1,5-α]-pyrimidin-7-yl}phenyl)acetamide]
- solid form obtained from slurry (XRPD) (saturated isopropanol slurry seeded with approx. 25 mg polymorph Form III alone): exclusively polymorph Form III
- solid form obtained from slurry (XRPD) (saturated isopropanol slurry seeded with equal amounts (approx. 25 mg each) of polymorph Form I and Form III): polymorph Form III as the predominant product, with only a minor amount of polymorph Form I
- solid form obtained from slurry (XRPD) (saturated isopropanol slurry seeded with equal amounts (approx. 25 mg each) of polymorph Form II and Form III): exclusively polymorph Form III
